{"source": "paper PMC5778463", "about": "(Nucleic Acids Research, 2017)", "key": {"influenza B strains": {"tested_on": "influenza B strains", "conditions": "cited from earlier work"}, "[1]": {"molecular_target": "B/Memphis cap-midlink double domain (Influenza B virus, UniProt Q5V8X3)", "sequence (Q5V8X3 249-540 limits assumed)": "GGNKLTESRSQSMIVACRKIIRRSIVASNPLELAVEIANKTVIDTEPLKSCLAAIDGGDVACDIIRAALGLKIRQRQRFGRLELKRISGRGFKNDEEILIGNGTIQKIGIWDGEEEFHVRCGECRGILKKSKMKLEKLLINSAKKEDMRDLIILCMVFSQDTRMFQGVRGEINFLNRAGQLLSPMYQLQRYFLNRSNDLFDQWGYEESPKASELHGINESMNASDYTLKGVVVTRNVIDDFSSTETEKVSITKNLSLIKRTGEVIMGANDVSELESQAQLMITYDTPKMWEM", "assay": "biochemical", "format": "binding, influenza B/Memphis/13/03"}, "[2]": {"tested_on": "isolated influenza A PB2 cap-binding domain", "conditions": "cited from earlier work"}}, "note": "Several values for one entry are separate records, joined by “and”; a condition that tells them apart may be missing. Equal entries are not always repeated."}
{"smiles": "O=C(O)[C@H]1C2CCC(CC2)[C@@H]1Nc1nc(-c2c[nH]c3ncc(F)cc23)ncc1F", "note": "[VX-787]", "values": [{"measurement": "potency against influenza B strains", "setting": "influenza B strains", "value": "no potency"}, {"measurement": "Kd", "setting": "[1]", "value": 1200, "unit": "nM"}, {"measurement": "times tighter binding than m^7GTP", "setting": "[2]", "value": "~60", "unit": "times"}, {"measurement": "Kd", "setting": "[2]; read-out: affinity to cap-binding domain alone", "value": "~24 nM and 24 nM"}]}
